Reference: paper PMC10709440, “High-throughput ligand profile characterization in novel cell lines expressing seven heterologous insect olfactory receptors for the detection of volatile plant biomarkers” (Scientific Reports, 2023)
Like-named read-outs stand apart in the source and are kept apart here.

Experiments:
Drosophila OR10a = molecular target: T1, Drosophila OR10a (Drosophila melanogaster, UniProt Q9VYZ1); test: Calcium ion fluorescence (GCaMP6) assay, OR10a stable HEK293 cell line; assay type: cell-based
T1 construct: expressed in transfected cells
T1 sequence (Q9VYZ1 1-406): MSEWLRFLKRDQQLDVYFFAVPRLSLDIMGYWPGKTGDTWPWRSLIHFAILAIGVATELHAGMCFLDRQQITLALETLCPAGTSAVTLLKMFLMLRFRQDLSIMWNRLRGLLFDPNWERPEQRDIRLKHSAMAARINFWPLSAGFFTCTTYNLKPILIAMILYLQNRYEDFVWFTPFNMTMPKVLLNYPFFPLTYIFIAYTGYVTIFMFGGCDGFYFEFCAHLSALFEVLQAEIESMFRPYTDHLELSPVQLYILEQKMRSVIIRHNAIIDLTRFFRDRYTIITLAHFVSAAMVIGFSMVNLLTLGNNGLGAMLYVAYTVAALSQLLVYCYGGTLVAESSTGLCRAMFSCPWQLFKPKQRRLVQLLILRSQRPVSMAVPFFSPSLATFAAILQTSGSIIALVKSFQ
T1 sequence (Q9VNB5 1-486 partner): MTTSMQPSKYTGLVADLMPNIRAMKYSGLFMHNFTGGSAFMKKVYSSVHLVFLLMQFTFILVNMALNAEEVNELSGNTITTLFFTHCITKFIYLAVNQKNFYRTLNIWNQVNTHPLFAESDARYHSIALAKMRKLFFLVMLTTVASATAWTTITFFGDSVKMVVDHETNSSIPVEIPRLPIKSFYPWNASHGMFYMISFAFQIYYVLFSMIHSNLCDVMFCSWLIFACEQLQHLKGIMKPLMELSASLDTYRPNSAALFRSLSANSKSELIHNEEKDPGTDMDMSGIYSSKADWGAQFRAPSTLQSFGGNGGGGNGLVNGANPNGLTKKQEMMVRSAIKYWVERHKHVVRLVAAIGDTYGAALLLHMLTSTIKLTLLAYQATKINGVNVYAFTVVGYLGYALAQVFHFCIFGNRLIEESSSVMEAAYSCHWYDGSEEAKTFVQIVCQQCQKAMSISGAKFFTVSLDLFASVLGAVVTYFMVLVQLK
Description: (§1) These VUAA1 normalized ∆F values were used to compare the different receptors and ligands.
(§2) The concentration-dependent effect of the reference ligands on their cognate cell lines was examined in more detail. Twelve different ligand concentrations were measured on each cell line in an overall 0.01 μM to 100 μM concentration range with 5 repetitions with three technical replicates each time.
(§3) Twelve thousand to 18,000 cells were plated into each well of a black wall, transparent bottom 384-well microplate (Greiner) 48 h or 72 h before the measurements and were simultaneously treated with 1 μg/mL doxycycline. […] The plate has 24 columns, thus we could record responses in up to eight different cell lines in each plate. On the day of the experiment, the growth medium was replaced with 20 µL assay buffer/well (140 mM NaCl, 5 mM KCl, 2 mM CaCl2, 1 mM MgCl2, 5 mM HEPES-Na, 20 mM glucose, pH 7.3, 340 mOsm). […] Baseline fluorescence (F0) was recorded for 5 s, after which 7 µL VOC buffer (140 mM NaCl, 5 mM KCl, 2 mM CaCl2, 1 mM MgCl2, 5 mM HEPES-Na, 31 mM glucose, 0.1% DMSO, pH 7.3, 340 mOsm) was injected into each well in one row and the fluorescence response was recorded for an additional 30 s, at a rate of one read/sec. VOC solutions (VOC buffer with 4× concentration of the final measured VOC concentration, 9 µL/well was injected) were measured on the same wells in a second round with the same protocol. Each individual concentration of a specific VOC sample was recorded in three wells for the same cell line on the same microplate. The raw data were exported in xls file format, F0 and FMAX values, and the fluorescence intensity changes (∆F) were calculated in Excel (Microsoft) (Supplementary file Data summary.xlsx) using the following equation: ΔF=FMAX-F0/F0 (see also Fig. 1C). On each plate, we recorded the response of each cell line to 50 µM VUAA1. The average of these ∆F values of each cell line were used to calculate the VUAA1-normalized values for the rest of the plate, by dividing VOC response ∆F values by the average VUAA1 response ∆F value of the corresponding OR cell line. Each VOC-OR combination was measured three times as technical replicates. […] The average of these replicates were used as one ∆F and VUAA1-normalized ∆F in the following analysis.
(§4) In the next rows we tested the reference VOCs (or other VOCs known to activate the corresponding cell lines), in order to test if all cell lines are responsive. The remaining rows were used to test VOCs with unknown effect.
(§5) The recorded FMAX, F0, ∆F, VUAA1-normalized ∆F values, as well as the OR name, the name of the tested sample, and the final concentration for each well were copied into supplementary file Data summary.xlsx, that was used to summarize all the plates recorded. Here, the averages of the measurements were calculated for each receptor-VOC-concentration combination.

Drosophila OR49b = molecular target: T2, Drosophila OR49b (Drosophila melanogaster, UniProt Q9V6H2); test: cell-based; conditions: for Average response: mean of biological replicates; for DF norm AVERAGE OR49b: threshold 0.05, below shown as 0; for activation at 1 µM / activation at 10 µM / activation at 100 µM: HEK293
T2 construct: expressed in transfected cells
T2 sequence (Q9V6H2 1-375): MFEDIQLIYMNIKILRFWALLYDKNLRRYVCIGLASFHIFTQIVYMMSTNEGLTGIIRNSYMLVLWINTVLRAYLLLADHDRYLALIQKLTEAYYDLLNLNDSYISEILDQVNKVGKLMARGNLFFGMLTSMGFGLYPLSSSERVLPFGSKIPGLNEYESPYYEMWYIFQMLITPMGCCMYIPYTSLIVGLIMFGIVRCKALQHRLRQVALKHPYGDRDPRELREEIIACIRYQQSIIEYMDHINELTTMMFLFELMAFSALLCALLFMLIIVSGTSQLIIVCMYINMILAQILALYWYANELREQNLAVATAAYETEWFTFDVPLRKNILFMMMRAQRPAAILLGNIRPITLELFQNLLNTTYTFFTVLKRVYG
T2 sequence (Q9VNB5 1-486 partner): T1 sequence (Q9VNB5 1-486 partner)
Description: as §1, §2, §3, §4, §5

[1] = 1 μM VOC, 50 μM VUAA1 = 1, responses not exceeding 0.05 considered 0
[2] = 10 μM VOC, 50 μM VUAA1 = 1, responses not exceeding 0.05 considered 0
[3] = 100 μM VOC, 50 μM VUAA1 = 1, responses not exceeding 0.05 considered 0
[4] = ligand concentration 1 (unit not given), threshold 0.05, below shown as 0
[5] = ligand concentration 10 (unit not given), threshold 0.05, below shown as 0
[6] = ligand concentration 100 (unit not given), threshold 0.05, below shown as 0
[7] = OR49b cell line, odorant cc. 1 µM
[8] = OR49b cell line, odorant cc. 10 µM
[9] = OR49b cell line, odorant cc. 100 µM
[10] = ligand concentration 1 (unit not given)
[11] = ligand concentration 10 (unit not given)
[12] = ligand concentration 100 (unit not given)
[13] = HEK293, 1 μM VOC, 50 μM VUAA1 = 1, responses not exceeding 0.05 considered 0, read-out: OR10a Average response (VUAA1-normalized)
[14] = HEK293, 10 μM VOC, 50 μM VUAA1 = 1, responses not exceeding 0.05 considered 0, read-out: OR10a Average response (VUAA1-normalized)
[15] = HEK293, 100 μM VOC, 50 μM VUAA1 = 1, responses not exceeding 0.05 considered 0, read-out: OR10a Average response (VUAA1-normalized)

Compound | OR10a Average response (VUAA1-normalized) (Drosophila OR10a; [1]) | OR10a Average response (VUAA1-normalized) (Drosophila OR10a; [2]) | OR10a Average response (VUAA1-normalized) (Drosophila OR10a; [3]) | DF norm AVERAGE OR10a (Drosophila OR10a; [4]) | DF norm AVERAGE OR10a (Drosophila OR10a; [5]) | DF norm AVERAGE OR10a (Drosophila OR10a; [6]) | Average response (Drosophila OR49b; [7]) | Average response (Drosophila OR49b; [8]) | Average response (Drosophila OR49b; [9]) | DF norm AVERAGE OR49b (Drosophila OR49b; [10]) | DF norm AVERAGE OR49b (Drosophila OR49b; [11]) | DF norm AVERAGE OR49b (Drosophila OR49b; [12]) | activation at 1 µM (Drosophila OR10a; [13]) | activation at 10 µM (Drosophila OR10a; [14]) | activation at 100 µM (Drosophila OR10a; [15]) | further results
CC/C=C/CCO [e3-hexenol] | 0.0153 | 0.00 | 0.074 | 0 | 0 | 0.07404 | 0.00 | 0.00 | 0.08 | 0 | 0 | 0.07888 |  |  |  | 
(-)-alpha-cedrene | 0.02 | 0.06 | 0.00 |  |  |  | 0.00 | 0.0843 | 0.00 |  |  |  |  |  |  | DF norm AVERAGE OR10a (Drosophila OR10a): 0; OR10a response (VUAA1-normalized response) (Drosophila OR10a; VOC concentration 1 μM): 0.00; OR10a response (VUAA1-normalized response) (Drosophila OR10a; VOC concentration 10 μM): 0.06; OR10a response (VUAA1-normalized response) (Drosophila OR10a; VOC concentration 100 μM): 0.00; DF norm AVERAGE OR10a (Drosophila OR10a; concentration 10, normalized fluorescence change, values below 0.05 threshold given as 0): 0.05923; OR49b response (VUAA1-normalized response) (Drosophila OR49b; VOC concentration 1 μM): 0.00; OR49b response (VUAA1-normalized response) (Drosophila OR49b; VOC concentration 10 μM): 0.0843; OR49b response (VUAA1-normalized response) (Drosophila OR49b; VOC concentration 100 μM): 0.00
Cc1ccc(C)c(C)c1 [1,2,4-trimethylbenzene] |  |  |  |  |  |  | 0.00 | 0.00 | 0.20 |  |  |  | 7% | 0% | 2.53% | activation at 1 µM (Drosophila OR10a; HEK293, read-out: OR10a response (VUAA1-normalized response), VOC concentration 1 μM): 7%; activation at 10 µM (Drosophila OR10a; HEK293, read-out: OR10a response (VUAA1-normalized response), VOC concentration 10 μM): 0%; activation at 100 µM (Drosophila OR10a; HEK293, read-out: OR10a response (VUAA1-normalized response), VOC concentration 100 μM): 0%; activation at 1 µM (Drosophila OR49b; 1 μM VOC, 50 μM VUAA1 = 1, read-out: OR49b Average response (VUAA1-normalized)): 0%; activation at 10 µM (Drosophila OR49b; 10 μM VOC, 50 μM VUAA1 = 1, read-out: OR49b Average response (VUAA1-normalized)): 0%; activation at 100 µM (Drosophila OR49b; 100 μM VOC, 50 μM VUAA1 = 1, read-out: OR49b Average response (VUAA1-normalized)): 20%; activation at 1 µM (Drosophila OR49b; VOC concentration 1 μM, read-out: OR49b response (VUAA1-normalized response)): 0%; activation at 10 µM (Drosophila OR49b; VOC concentration 10 μM, read-out: OR49b response (VUAA1-normalized response)): 0%; activation at 100 µM (Drosophila OR49b; VOC concentration 100 μM, read-out: OR49b response (VUAA1-normalized response)): 20%
C=CC(C)(O)CCC=C(C)C (centres unmarked) [linalool] |  |  |  | 0 | 0.06934 | 0 | 0.00 | 0.00 | 0.0212 | 0 | 0 | 0 | 2% | 7% | 0% | OR10a response (VUAA1-normalized) at 1 μM (Drosophila OR10a; OR10a cell line, VOC concentration 1 μM): 0.00; OR10a response (VUAA1-normalized) at 10 μM (Drosophila OR10a; OR10a cell line, VOC concentration 10 μM): 0.07; OR10a response (VUAA1-normalized) at 100 μM (Drosophila OR10a; OR10a cell line, VOC concentration 100 μM): 0.00; OR49b response (VUAA1-normalized) at 1 μM (Drosophila OR49b; OR49b cell line, VOC concentration 1 μM): 0.00; OR49b response (VUAA1-normalized) at 10 μM (Drosophila OR49b; OR49b cell line, VOC concentration 10 μM): 0.00; OR49b response (VUAA1-normalized) at 100 μM (Drosophila OR49b; OR49b cell line, VOC concentration 100 μM): 0.00
